Numbered stars: 1 amine (or outer) side, 2 acyl side, 3 side chain; on linkers, the order of the positions; unused ones are H or OH. Square brackets hold non-standard residues; d marks the D form. Side chains are listed from the residue outwards. Peptide text beside a SMILES is read from it. * marks the point of attachment. γGlu = O=C(O)[C@H](CCC(=O)[*:2])N[*:1]; Desaminohistidyl = O=C(CCc1c[nH]cn1)*; Palmitoyl = CCCCCCCCCCCCCCCC(=O)*; βAla = NCCC(=O)O
How the values were obtained:
Test in all cases: cAMP induction, firefly luciferase reporter assay in HEK293 cells co-transfected with receptor
Type in all cases: cell-based
Conditions in all cases: Table 1, analogs of SEQ ID NO: 37
GIP receptor = target: T1, GIP receptor (Homo sapiens, UniProt P48546)
T1 construct: expressed in transfected cells; host or cells: HEK293
T1 sequence (P48546 22-466): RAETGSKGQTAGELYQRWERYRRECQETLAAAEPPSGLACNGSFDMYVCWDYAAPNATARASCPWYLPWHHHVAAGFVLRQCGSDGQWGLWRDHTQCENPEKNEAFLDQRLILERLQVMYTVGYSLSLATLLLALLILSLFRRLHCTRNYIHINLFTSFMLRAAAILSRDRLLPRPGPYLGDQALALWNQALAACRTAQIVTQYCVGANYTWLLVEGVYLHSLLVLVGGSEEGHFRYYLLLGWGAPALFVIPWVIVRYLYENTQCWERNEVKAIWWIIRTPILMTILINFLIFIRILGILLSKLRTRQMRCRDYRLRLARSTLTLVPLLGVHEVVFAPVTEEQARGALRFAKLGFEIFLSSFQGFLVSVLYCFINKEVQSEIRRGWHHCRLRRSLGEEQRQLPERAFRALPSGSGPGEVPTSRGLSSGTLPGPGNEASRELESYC
Experimental: (§1) The ability of glucagon analogs to induce cAMP was measured in a firefly luciferase-based reporter assay. […] At the end of the incubation 100 microliters of LucLite luminescence substrate reagent (Perkin-Elmer, Wellesley, Mass.) were added to each well. […] Effective 50% concentrations were calculated by using Origin software (OriginLab, Northampton, Mass.

GLP-1 receptor = target: T2, GLP-1 receptor (Homo sapiens, UniProt P43220)
T2 construct: expressed in transfected cells; host or cells: HEK293
T2 sequence (P43220 24-463): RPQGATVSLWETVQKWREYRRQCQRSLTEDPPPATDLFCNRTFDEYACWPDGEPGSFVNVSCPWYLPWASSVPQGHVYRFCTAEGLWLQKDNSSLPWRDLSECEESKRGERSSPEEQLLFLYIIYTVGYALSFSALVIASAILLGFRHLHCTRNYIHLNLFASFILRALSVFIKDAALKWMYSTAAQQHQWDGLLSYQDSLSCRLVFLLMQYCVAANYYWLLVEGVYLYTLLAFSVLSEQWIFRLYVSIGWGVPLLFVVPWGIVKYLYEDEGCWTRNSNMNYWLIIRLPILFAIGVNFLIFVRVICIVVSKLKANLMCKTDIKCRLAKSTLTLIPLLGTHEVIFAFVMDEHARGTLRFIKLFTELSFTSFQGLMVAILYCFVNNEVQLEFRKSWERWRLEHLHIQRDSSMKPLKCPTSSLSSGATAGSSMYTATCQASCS
Experimental: as §1

glucagon receptor = target: T3, glucagon receptor (Homo sapiens, UniProt P47871)
T3 construct: expressed in transfected cells; host or cells: HEK293
T3 sequence (P47871 26-477): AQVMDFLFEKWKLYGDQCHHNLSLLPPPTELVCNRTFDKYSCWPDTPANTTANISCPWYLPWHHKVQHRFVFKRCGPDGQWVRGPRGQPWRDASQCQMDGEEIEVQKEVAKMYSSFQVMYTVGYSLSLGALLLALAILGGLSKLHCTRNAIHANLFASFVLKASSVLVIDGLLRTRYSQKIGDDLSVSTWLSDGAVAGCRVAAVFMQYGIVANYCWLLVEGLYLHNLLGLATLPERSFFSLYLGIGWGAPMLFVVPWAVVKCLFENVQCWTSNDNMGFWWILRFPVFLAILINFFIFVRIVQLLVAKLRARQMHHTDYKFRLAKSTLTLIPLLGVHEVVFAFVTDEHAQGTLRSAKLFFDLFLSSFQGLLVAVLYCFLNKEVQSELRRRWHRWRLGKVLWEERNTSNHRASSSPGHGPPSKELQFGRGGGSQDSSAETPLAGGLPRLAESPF
Experimental: as §1

SMILES | EC50 (GIP receptor) | EC50 (GLP-1 receptor) | EC50 (glucagon receptor)
CCCCCCCCCCCCCCCC(=O)N[C@@H](CCC(=O)NCCCC[C@H](NC(=O)[C@H](CC(=O)O)NC(=O)[C@H](CO)NC(=O)[C@@H](NC(=O)[C@H](Cc1ccccc1)NC(=O)[C@@H](NC(=O)CNC(=O)[C@H](CCC(N)=O)NC(=O)[C@H](C)NC(=O)[C@@H](Cc1cccs1)NC(C)=O)[C@@H](C)O)[C@@H](C)O)C(=O)N[C@@H](CO)C(=O)N[C@@H](CCCCN)C(=O)N[C@@H](Cc1ccc(O)cc1)C(=O)N[C@@H](CC(C)C)C(=O)N[C@@H](CC(=O)O)C(=O)N[C@@H](CCC(=O)O)C(=O)N[C@@H](CCCNC(=N)N)C(=O)N[C@@H](C)C(=O)N[C@@H](C)C(=O)N[C@@H](CCC(N)=O)C(=O)N[C@@H](CC(=O)O)C(=O)N[C@@H](Cc1ccccc1)C(=O)N[C@H](C(=O)N[C@@H](CCC(N)=O)C(=O)N[C@@H](Cc1c[nH]c2ccccc12)C(=O)N[C@@H](CC(C)C)C(=O)N[C@@H](CC(C)C)C(=O)N[C@@H](CCC(=O)O)C(=O)NCC(=O)NCC(=O)N1CCC[C@H]1C(=O)N[C@@H](CO)C(=O)N[C@@H](CO)C(=O)NCC(=O)N[C@@H](C)C(=O)N1CCC[C@H]1C(=O)N1CCC[C@H]1C(=O)N1CCC[C@H]1C(=O)N[C@@H](CO)C(N)=O)C(C)C)C(=O)O [compound 17] | 0.011 nM | 0.005 nM | 0.008 nM
CCCCCCCCCCCCCCCC(=O)N[C@@H](CCC(=O)NCCCC[C@H](NC(=O)[C@H](CC(=O)O)NC(=O)[C@H](CO)NC(=O)[C@@H](NC(=O)[C@H](Cc1ccccc1)NC(=O)[C@@H](NC(=O)CNC(=O)[C@H](CCC(N)=O)NC(=O)[C@H](C)NC(=O)[C@H](Cc1cccs1)NC(C)=O)[C@@H](C)O)[C@@H](C)O)C(=O)N[C@@H](CO)C(=O)N[C@@H](CCCCN)C(=O)N[C@@H](Cc1ccc(O)cc1)C(=O)N[C@@H](CC(C)C)C(=O)N[C@@H](CC(=O)O)C(=O)N[C@@H](CCC(=O)O)C(=O)N[C@@H](CCCNC(=N)N)C(=O)N[C@@H](C)C(=O)N[C@@H](C)C(=O)N[C@@H](CCC(N)=O)C(=O)N[C@@H](CC(=O)O)C(=O)N[C@@H](Cc1ccccc1)C(=O)N[C@H](C(=O)N[C@@H](CCC(N)=O)C(=O)N[C@@H](Cc1c[nH]c2ccccc12)C(=O)N[C@@H](CC(C)C)C(=O)N[C@@H](CC(C)C)C(=O)N[C@@H](CCC(=O)O)C(=O)NCC(=O)NCC(=O)N1CCC[C@H]1C(=O)N[C@@H](CO)C(=O)N[C@@H](CO)C(=O)NCC(=O)N[C@@H](C)C(=O)N1CCC[C@H]1C(=O)N1CCC[C@H]1C(=O)N1CCC[C@H]1C(=O)N[C@@H](CO)C(N)=O)C(C)C)C(=O)O [compound 21] | 0.04 nM | 0.026 nM | 0.006 nM
CCCCCCCCCCCCCCCC(=O)N[C@@H](CCC(=O)NCCCC[C@H](NC(=O)[C@H](CC(=O)O)NC(=O)[C@H](CO)NC(=O)[C@@H](NC(=O)[C@H](Cc1ccccc1)NC(=O)[C@@H](NC(=O)CNC(=O)[C@H](CCC(N)=O)NC(=O)[C@H](C)NC(=O)CCc1c[nH]cn1)[C@@H](C)O)[C@@H](C)O)C(=O)N[C@@H](CO)C(=O)N[C@@H](CCCCN)C(=O)N[C@@H](Cc1ccc(O)cc1)C(=O)N[C@@H](CC(C)C)C(=O)N[C@@H](CC(=O)O)C(=O)N[C@@H](CCC(=O)O)C(=O)N[C@@H](CCCNC(=N)N)C(=O)N[C@@H](C)C(=O)N[C@@H](C)C(=O)N[C@@H](CCC(N)=O)C(=O)N[C@@H](CC(=O)O)C(=O)N[C@@H](Cc1ccccc1)C(=O)N[C@H](C(=O)N[C@@H](CCC(N)=O)C(=O)N[C@@H](Cc1c[nH]c2ccccc12)C(=O)N[C@@H](CC(C)C)C(=O)N[C@@H](CC(C)C)C(=O)N[C@@H](CCC(=O)O)C(=O)NCC(=O)NCC(=O)N1CCC[C@H]1C(=O)N[C@@H](CO)C(=O)N[C@@H](CO)C(=O)NCC(=O)N[C@@H](C)C(=O)N1CCC[C@H]1C(=O)N1CCC[C@H]1C(=O)N1CCC[C@H]1C(=O)N[C@@H](CO)C(N)=O)C(C)C)C(=O)O [compound 22] (Desaminohistidyl-AQGTFTSDK([γGlu-Palmitoyl])SKYLDERAAQDFVQWLLEGGPSSGAPPPS-NH2) | 0.041 nM | 0.003 nM | 0.017 nM
CCCCCCCCCCCCCCCC(=O)N[C@@H](CCC(=O)NCCCC[C@H](NC(=O)[C@H](CC(=O)O)NC(=O)[C@H](CO)NC(=O)[C@@H](NC(=O)[C@H](Cc1ccccc1)NC(=O)[C@@H](NC(=O)CNC(=O)[C@H](CCC(N)=O)NC(=O)CNC(=O)[C@H](N)Cc1c[nH]cn1)[C@@H](C)O)[C@@H](C)O)C(=O)N[C@@H](CO)C(=O)N[C@@H](CCCCN)C(=O)N[C@@H](Cc1ccc(O)cc1)C(=O)N[C@@H](CC(C)C)C(=O)N[C@@H](CC(=O)O)C(=O)N[C@@H](CCC(=O)O)C(=O)N[C@@H](CCCNC(=N)N)C(=O)N[C@@H](C)C(=O)N[C@@H](C)C(=O)N[C@@H](CCC(N)=O)C(=O)N[C@@H](CC(=O)O)C(=O)N[C@@H](Cc1ccccc1)C(=O)N[C@H](C(=O)N[C@@H](CCC(N)=O)C(=O)N[C@@H](Cc1c[nH]c2ccccc12)C(=O)N[C@@H](CC(C)C)C(=O)N[C@@H](CC(C)C)C(=O)N[C@@H](CCC(=O)O)C(=O)NCC(=O)NCC(=O)N1CCC[C@H]1C(=O)N[C@@H](CO)C(=O)N[C@@H](CO)C(=O)NCC(=O)N[C@@H](C)C(=O)N1CCC[C@H]1C(=O)N1CCC[C@H]1C(=O)N1CCC[C@H]1C(=O)N[C@@H](CO)C(N)=O)C(C)C)C(=O)O [compound 23] (H-[dH]GQGTFTSDK([γGlu-Palmitoyl])SKYLDERAAQDFVQWLLEGGPSSGAPPPS-NH2; N-terminus assumed) | 0.043 nM | 0.003 nM | 0.015 nM
CCCCCCCCCCCCCCCC(=O)N[C@@H](CCC(=O)NCCCC[C@H](NC(=O)[C@H](CC(=O)O)NC(=O)[C@H](CO)NC(=O)[C@@H](NC(=O)[C@H](Cc1ccccc1)NC(=O)[C@@H](NC(=O)CNC(=O)[C@H](CCC(N)=O)NC(=O)[C@H](C)NC(=O)C(CN)Cc1c[nH]cn1)[C@@H](C)O)[C@@H](C)O)C(=O)N[C@@H](CO)C(=O)N[C@@H](CCCCN)C(=O)N[C@@H](Cc1ccc(O)cc1)C(=O)N[C@@H](CC(C)C)C(=O)N[C@@H](CC(=O)O)C(=O)N[C@@H](CCC(=O)O)C(=O)N[C@@H](CCCNC(=N)N)C(=O)N[C@@H](C)C(=O)N[C@@H](C)C(=O)N[C@@H](CCC(N)=O)C(=O)N[C@@H](CC(=O)O)C(=O)N[C@@H](Cc1ccccc1)C(=O)N[C@H](C(=O)N[C@@H](CCC(N)=O)C(=O)N[C@@H](Cc1c[nH]c2ccccc12)C(=O)N[C@@H](CC(C)C)C(=O)N[C@@H](CC(C)C)C(=O)N[C@@H](CCC(=O)O)C(=O)NCC(=O)NCC(=O)N1CCC[C@H]1C(=O)N[C@@H](CO)C(=O)N[C@@H](CO)C(=O)NCC(=O)N[C@@H](C)C(=O)N1CCC[C@H]1C(=O)N1CCC[C@H]1C(=O)N1CCC[C@H]1C(=O)N[C@@H](CO)C(N)=O)C(C)C)C(=O)O (stereo partly drawn) [compound 25] | 0.064 nM | 0.003 nM | 0.024 nM
CCCCCCCCCCCCCCCC(=O)N[C@@H](CCC(=O)NCCCC[C@H](NC(=O)[C@H](CC(=O)O)NC(=O)[C@H](CO)NC(=O)[C@@H](NC(=O)[C@H](Cc1ccccc1)NC(=O)[C@@H](NC(=O)CNC(=O)[C@H](CCC(N)=O)NC(=O)CCNC(=O)[C@@H](N)Cc1c[nH]cn1)[C@@H](C)O)[C@@H](C)O)C(=O)N[C@@H](CO)C(=O)N[C@@H](CCCCN)C(=O)N[C@@H](Cc1ccc(O)cc1)C(=O)N[C@@H](CC(C)C)C(=O)N[C@@H](CC(=O)O)C(=O)N[C@@H](CCC(=O)O)C(=O)N[C@@H](CCCNC(=N)N)C(=O)N[C@@H](C)C(=O)N[C@@H](C)C(=O)N[C@@H](CCC(N)=O)C(=O)N[C@@H](CC(=O)O)C(=O)N[C@@H](Cc1ccccc1)C(=O)N[C@H](C(=O)N[C@@H](CCC(N)=O)C(=O)N[C@@H](Cc1c[nH]c2ccccc12)C(=O)N[C@@H](CC(C)C)C(=O)N[C@@H](CC(C)C)C(=O)N[C@@H](CCC(=O)O)C(=O)NCC(=O)NCC(=O)N1CCC[C@H]1C(=O)N[C@@H](CO)C(=O)N[C@@H](CO)C(=O)NCC(=O)N[C@@H](C)C(=O)N1CCC[C@H]1C(=O)N1CCC[C@H]1C(=O)N1CCC[C@H]1C(=O)N[C@@H](CO)C(N)=O)C(C)C)C(=O)O [compound 26] (H-H[βAla]QGTFTSDK([γGlu-Palmitoyl])SKYLDERAAQDFVQWLLEGGPSSGAPPPS-NH2) | 0.071 nM | 0.002 nM | 0.095 nM
CCCCCCCCCCCCCCCC(=O)N[C@@H](CCC(=O)NCCCC[C@H](NC(=O)[C@H](CC(=O)O)NC(=O)[C@H](CO)NC(=O)[C@@H](NC(=O)[C@H](Cc1ccccc1)NC(=O)[C@@H](NC(=O)CNC(=O)[C@H](CCC(N)=O)NC(=O)[C@@H]1CCCN1C(=O)[C@H](N)Cc1c[nH]cn1)[C@@H](C)O)[C@@H](C)O)C(=O)N[C@@H](CO)C(=O)N[C@@H](CCCCN)C(=O)N[C@@H](Cc1ccc(O)cc1)C(=O)N[C@@H](CC(C)C)C(=O)N[C@@H](CC(=O)O)C(=O)N[C@@H](CCC(=O)O)C(=O)N[C@@H](CCCNC(=N)N)C(=O)N[C@@H](C)C(=O)N[C@@H](C)C(=O)N[C@@H](CCC(N)=O)C(=O)N[C@@H](CC(=O)O)C(=O)N[C@@H](Cc1ccccc1)C(=O)N[C@H](C(=O)N[C@@H](CCC(N)=O)C(=O)N[C@@H](Cc1c[nH]c2ccccc12)C(=O)N[C@@H](CC(C)C)C(=O)N[C@@H](CC(C)C)C(=O)N[C@@H](CCC(=O)O)C(=O)NCC(=O)NCC(=O)N1CCC[C@H]1C(=O)N[C@@H](CO)C(=O)N[C@@H](CO)C(=O)NCC(=O)N[C@@H](C)C(=O)N1CCC[C@H]1C(=O)N1CCC[C@H]1C(=O)N1CCC[C@H]1C(=O)N[C@@H](CO)C(N)=O)C(C)C)C(=O)O [compound 27] (H-[dH]PQGTFTSDK([γGlu-Palmitoyl])SKYLDERAAQDFVQWLLEGGPSSGAPPPS-NH2; N-terminus assumed) | 0.08 nM | 0.003 nM | 0.034 nM
